Calls of active or inactive are those of the source.
How the values were obtained:
Cytochrome P450 1A2 = molecular target: T1, Cytochrome P450 1A2 (Homo sapiens, UniProt P05177);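 also: PubChem cytochrome P450 panel assay, CYP1A2 panel member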
T1 sequence (P05177 whole entry): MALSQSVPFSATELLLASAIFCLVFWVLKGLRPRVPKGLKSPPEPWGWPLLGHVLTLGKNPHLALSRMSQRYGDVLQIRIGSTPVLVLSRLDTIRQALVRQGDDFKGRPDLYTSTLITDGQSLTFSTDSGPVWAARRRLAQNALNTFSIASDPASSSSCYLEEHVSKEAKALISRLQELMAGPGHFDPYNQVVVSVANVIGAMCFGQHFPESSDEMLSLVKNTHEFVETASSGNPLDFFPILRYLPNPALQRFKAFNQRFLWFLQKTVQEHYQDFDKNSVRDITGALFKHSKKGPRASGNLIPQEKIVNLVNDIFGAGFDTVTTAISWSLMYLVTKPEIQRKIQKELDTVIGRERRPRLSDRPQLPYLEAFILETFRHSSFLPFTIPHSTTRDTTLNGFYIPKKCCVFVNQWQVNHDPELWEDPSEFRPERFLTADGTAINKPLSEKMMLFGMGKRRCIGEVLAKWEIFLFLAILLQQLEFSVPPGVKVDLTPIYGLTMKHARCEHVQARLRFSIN

[1] = molecular target: 72 kDa type IV collagenase (Homo sapiens, UniProt P08253); assay: Dose Response validation of uHTS RPN11 inhibitor hits using a MMP-2 Fluorescence assay.; format: functional
[2] = molecular target: 26S proteasome non-ATPase regulatory subunit 14 (Homo sapiens, UniProt O00487); assay: inhibition of proteasome subunit RPN11 – biochemical, fluorescence polarization, uHTS hits, confirmation (AID 602368); format: functional
Cytochrome P450 2D6 = Cytochrome P450 2D6 (Homo sapiens, UniProt P10635);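 also: CYP2D6 member of a cytochrome P450 panel assay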
Prothrombin = Prothrombin (Bos taurus, UniProt P00735); assay: thrombin protease inhibitors – biochemical, fluorescence polarization, uHTS hits, dose response (AID 602369); format: functional
[3] = blockers of CAL PDZ–TMR peptide complex – biochemical, fluorescence polarization, untagged CAL PDZ, cherry-pick, set 2, dose response (AID 602254); format: functional
Melanocortin receptor 4 = Melanocortin receptor 4 (Homo sapiens, UniProt P32245); assay: inhibitors of MC4R cAMP signaling – cell-based, TR-FRET, biased antagonists, dose response (AID 602298); format: functional;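 also: antagonist potency against agonist-stimulated cAMP production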
[4] = cAMP pathway inhibition in counterscreen cell line – TR-FRET cAMP detection, counter-screen for MC4R biased antagonist project, dose response (AID 602305); format: functional, cell-based;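 also: U2OS cells stimulated with forskolin near its EC80 as the cAMP inducer; potency is for inhibition of forskolin-stimulated cAMP signaling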
H4 = assay: Luminescence Cell-Based Dose Response HTS to Identify Activators of 5'UTR Stem-Loop Driven Prion Protein mRNA Translation in H4 Neuroglioblastoma Cells. [Related pubchem assays: 1829 (Project Summary), 1814 (Primary HTS)]; format: functional; settings: Homo sapiens
HeLa = assay: ATP-based viability loss in HeLa cells – cell-based, CellTiter-Glo luminescence, cherry-pick samples, cytotoxicity control for MITF activator project, dose response (AID 540259); format: functional; settings: Homo sapiens
[5] = Luminescence Cell-Based Dose Response HTS to Identify Activators of Luciferase Translation or Activity in H4 […] Cells. [Related pubchem assays: 1829 (Project Summary), 1814 (Primary HTS)]; format: functional
[6] = Luminescence Cell-Based Dose Confirmation HTS to Identify Activators of 5'UTR Stem-Loop Driven Alpha-Synuclein mRNA Translation in H4 Neuroglioblastoma Cells. [Related pubchem assays: 1829 (Project Summary), 1814 (Primary HTS)]; format: functional
[7] = molecular target: T2, Oxysterols receptor LXR-beta (Homo sapiens, UniProt P55055); format: functional, cell-based;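 also: agonist activity at LXR measured by a cell-based luminescence readout across a dose range, run as a counterscreen for daf-12 agonists; HEK293 cells with Gal4-LXR fusion and GAL4-driven luciferase reporter; potency for activation of Gal4-LXR reporter so compounds are agonists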
T2 sequence (P55055 whole entry): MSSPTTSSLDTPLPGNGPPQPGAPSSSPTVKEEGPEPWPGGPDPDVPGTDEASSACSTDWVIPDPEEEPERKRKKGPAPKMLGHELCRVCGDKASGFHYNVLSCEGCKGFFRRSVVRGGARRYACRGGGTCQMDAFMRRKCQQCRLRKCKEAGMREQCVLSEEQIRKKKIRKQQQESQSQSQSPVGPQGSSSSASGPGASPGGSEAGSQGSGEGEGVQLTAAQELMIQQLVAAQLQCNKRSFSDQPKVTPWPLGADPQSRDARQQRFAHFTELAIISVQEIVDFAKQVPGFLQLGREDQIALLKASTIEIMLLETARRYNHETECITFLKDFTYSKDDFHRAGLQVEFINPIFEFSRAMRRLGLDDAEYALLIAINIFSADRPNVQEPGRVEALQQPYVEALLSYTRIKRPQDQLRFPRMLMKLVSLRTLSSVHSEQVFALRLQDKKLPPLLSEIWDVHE

Melanocortin receptor 4, sequence (P32245 whole entry): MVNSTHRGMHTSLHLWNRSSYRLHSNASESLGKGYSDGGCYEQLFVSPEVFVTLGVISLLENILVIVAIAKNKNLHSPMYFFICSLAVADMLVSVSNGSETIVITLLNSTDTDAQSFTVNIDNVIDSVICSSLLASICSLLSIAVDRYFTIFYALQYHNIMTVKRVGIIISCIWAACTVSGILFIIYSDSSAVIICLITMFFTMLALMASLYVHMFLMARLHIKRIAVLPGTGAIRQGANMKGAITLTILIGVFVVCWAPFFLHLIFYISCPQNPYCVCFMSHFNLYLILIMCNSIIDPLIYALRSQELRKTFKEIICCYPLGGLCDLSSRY
26S proteasome non-ATPase regulatory subunit 14, sequence (O00487 whole entry): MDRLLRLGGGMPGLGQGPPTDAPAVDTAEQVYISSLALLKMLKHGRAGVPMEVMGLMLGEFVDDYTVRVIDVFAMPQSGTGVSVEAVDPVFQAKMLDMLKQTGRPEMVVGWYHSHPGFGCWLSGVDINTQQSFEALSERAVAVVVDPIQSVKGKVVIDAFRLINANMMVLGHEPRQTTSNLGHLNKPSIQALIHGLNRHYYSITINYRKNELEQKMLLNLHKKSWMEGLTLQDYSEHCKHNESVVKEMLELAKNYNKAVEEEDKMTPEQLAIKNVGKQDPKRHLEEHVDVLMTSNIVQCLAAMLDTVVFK
72 kDa type IV collagenase, sequence (P08253 whole entry): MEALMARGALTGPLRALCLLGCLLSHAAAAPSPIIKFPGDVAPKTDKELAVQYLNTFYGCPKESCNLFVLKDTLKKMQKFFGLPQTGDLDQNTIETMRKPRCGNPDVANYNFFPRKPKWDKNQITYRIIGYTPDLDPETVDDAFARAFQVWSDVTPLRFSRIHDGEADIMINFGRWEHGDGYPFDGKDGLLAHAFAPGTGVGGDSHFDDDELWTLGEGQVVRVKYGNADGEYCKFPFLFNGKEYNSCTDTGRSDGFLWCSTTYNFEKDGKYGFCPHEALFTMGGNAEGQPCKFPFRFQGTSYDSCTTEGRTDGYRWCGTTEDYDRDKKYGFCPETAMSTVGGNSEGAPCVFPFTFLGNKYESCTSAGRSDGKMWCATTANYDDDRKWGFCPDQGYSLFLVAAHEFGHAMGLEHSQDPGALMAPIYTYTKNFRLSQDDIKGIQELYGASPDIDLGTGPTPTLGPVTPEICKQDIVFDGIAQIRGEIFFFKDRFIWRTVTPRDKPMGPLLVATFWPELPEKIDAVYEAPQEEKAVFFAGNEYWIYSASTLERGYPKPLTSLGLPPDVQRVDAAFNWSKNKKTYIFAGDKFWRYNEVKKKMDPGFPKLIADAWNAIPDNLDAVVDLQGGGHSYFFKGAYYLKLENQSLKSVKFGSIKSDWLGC
Cytochrome P450 2D6, sequence (P10635 whole entry): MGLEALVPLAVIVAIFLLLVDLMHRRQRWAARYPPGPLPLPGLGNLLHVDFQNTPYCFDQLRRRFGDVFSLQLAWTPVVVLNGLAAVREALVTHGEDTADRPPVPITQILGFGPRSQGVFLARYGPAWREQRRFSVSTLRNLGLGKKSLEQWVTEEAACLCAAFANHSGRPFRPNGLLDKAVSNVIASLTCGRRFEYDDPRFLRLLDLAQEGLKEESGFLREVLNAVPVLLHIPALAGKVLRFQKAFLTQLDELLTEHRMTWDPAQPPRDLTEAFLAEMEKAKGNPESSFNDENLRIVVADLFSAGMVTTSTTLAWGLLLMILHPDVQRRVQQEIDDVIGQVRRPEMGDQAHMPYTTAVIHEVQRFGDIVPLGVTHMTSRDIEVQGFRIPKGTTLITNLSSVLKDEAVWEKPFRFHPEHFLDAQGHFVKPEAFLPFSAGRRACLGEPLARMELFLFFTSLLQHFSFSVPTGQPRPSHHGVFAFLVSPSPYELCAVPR

CN1/C(=C\C(=O)COC(=O)Cn2nnc(-c3ccccc3)n2)C(C)(C)c2ccccc21
AC50 (Cytochrome P450 1A2): 1.58 µM (inconclusive) | IC50 [1]: > 100 µM (inactive) | IC50 [2]: 34.5 µM (active) | AC50 (Cytochrome P450 2D6): 31.6 µM (inconclusive) | IC50 (Prothrombin): 51.6 µM (active)

Cc1cc2ccccc2n1CCNCc1c(C(=O)N2CCOCC2)nc2ccccn12
AC50 [3]: 110 µM (active)

CCOC(=O)c1c(NC(=O)C(C)OC(=O)C2=COCCO2)sc2c1CCCC2 (stereo not drawn)
IC50 (Melanocortin receptor 4): > 7.18 µM (active) | IC50 [4]: > 64.6 µM (inactive)

Cc1nn(C(=O)c2cccs2)c(N)c1-c1ccccc1
EC50 (H4): > 120 µM (not active) | AC50 (HeLa): 30.1 µM (active) | EC50 [5]: 19 µM (active) | EC50 [6]: 13.7 µM (active) | EC50 [7]: > 67.5 µM (inactive)

From ChEMBL document CHEMBL1201862, “PubChem BioAssay data set” (2004)
